Format in all cases: physicochemical
The nature of data set [1]: Spectral properties (absorbance, fluorescence, quantum yield) of sulfonated BODIPY dyes 6, Table 1. The conditions noted are these: for F: Fluorescein in 0.1M NaOH as standard. The text has this: A fluorophore, according to some embodiments of the disclosure, may have a high extinction coefficient and/or a sharp, intense fluorescence emission (e.g., rivaling that of the BODIPY dyes). A fluorophore may also have single molecule detection capacity.

The nature of data set [2]: Spectral Properties of 9 in CH2Cl2, Table 3. Also noted: emax: unit not given beside the values. As to conditions: for Ff: Rhodamine 101 in EtOH as the standard.
Data set [3] can be described thus: Fluorescence properties of water-soluble Nile Blue derivatives in aqueous media. As to conditions: for quantum yields versus I and J: pH 7.4 in aqueous media; for fwmh less than reported water-soluble Nile Blue derivatives: phosphate buffer pH 7.4, versus I and J. The source says:
A dye may include, in some embodiments, one or more of Nile Blue derivatives 17-20 (FIG. 11).

Data set [4] is described as follows: Water solubility of through-bond energy transfer cassettes.
The mark [5] stands for this setting: 0.1M lithium phosphate buffer (pH = 7.4).

In data set [1] (setting [5]), `Cc1c(S(=O)(=O)O)c(C)n2c1C=C1C(=O)N(C)C(c3ccc(C#CCCCC(=O)O)cc3)=[N+]1[B-]2(F)F` [6h] yielded an Imax abs of 482 nm, an Imax emiss of 526 nm, an e of 34766 M⁻¹ cm⁻¹ and a fwhm of 56 nm. Moreover, the F in data set [1] (setting [5]) was determined as 0.82 ± 0.01. In data set [1] (solvent MeOH), this compound registered an Imax abs of 488 nm, an Imax emiss of 538 nm, an e of 35024 M⁻¹ cm⁻¹ and a fwhm of 58 nm. The F in data set [1] (solvent MeOH) was 0.84 ± 0.01.

Regarding `CC(Nc1c2ccc(=[N+]3CCCCC3)cc-2oc2cc(N3CCCCC3)ccc12)C(=O)OC(C)(C)C.O=S(=O)([O-])C(F)(F)F` (centres unmarked) [9d], in data set [2], the If turned out to be 544 nm, the Imax came out at 462 nm, the emax was 62044 and the “fwhm (full width at half-maximum height)” value is 52 nm. This compound also yielded a Ff in data set [2] of 0.90 ± 0.02.

Turning to `CCN(CCCS(=O)(=O)O)c1ccc2nc3c4cc(O)ccc4c(=NCCCS(=O)(=O)O)cc-3oc2c1.Cl` [compound 17], in data set [3], the “quantum yields versus I and J” value is “improved quantum yields”; the “fwmh less than reported water-soluble Nile Blue derivatives” value was 20 nm.

With `O=S(=O)([O-])C(F)(F)F.c1ccc(CSc2c3ccc(=[N+]4CCCCC4)cc-3oc3cc(N4CCCCC4)ccc23)cc1` [9e], in data set [2], the If is 619 nm, the Imax was 598 nm, the emax came out at 82617 and the “fwhm (full width at half-maximum height)” value came to 38 nm. Further, the Ff in data set [2] came out at 0.79 ± 0.02.

Turning to `Cl.O=C(O)CCN(CCC(=O)O)c1ccc2nc3c4cc(O)ccc4c(=NCCCS(=O)(=O)O)cc-3oc2c1` [compound 18], in data set [3], the “quantum yields versus I and J” value is “improved quantum yields”; the “fwmh less than reported water-soluble Nile Blue derivatives” value is given as 20 nm.

In data set [1] (solvent Hexanes), `Cc1cc(C)n2c1C=C1C(=O)N(C)C(c3ccc([N+](=O)[O-])cc3)=[N+]1[B-]2(F)F` [6f] came in with an Imax abs of 498 nm, an Imax emiss of 587 nm, a fwhm of 53 nm and an F of 0.53 ± 0.01. Further, in data set [1] (solvent MeOH), the Imax abs stood at 492 nm, the Imax emiss is listed as 598 nm, the e was found to be 44003 M⁻¹ cm⁻¹ and the fwhm was 120 nm. This compound gave a F in data set [1] (solvent MeOH) of 0.0004.

In data set [1] (setting [5]), `Cc1c(S(=O)(=O)[O-])c(C)n2c1C=C1C(=O)N(C)C(c3ccc(I)cc3)=[N+]1[B-]2(F)F.[Na+]` [6g] showed an Imax abs of 481 nm, an Imax emiss of 518 nm, an e of 46461 M⁻¹ cm⁻¹ and a fwhm of 50 nm. Besides, the F in data set [1] (setting [5]) is 0.87 ± 0.01. In data set [1] (solvent MeOH), this compound gave an Imax abs of 488 nm, an Imax emiss of 531 nm, an e of 48132 M⁻¹ cm⁻¹ and a fwhm of 53 nm. This compound also displayed a F in data set [1] (solvent MeOH) of 0.88 ± 0.01.

In data set [1] (solvent MeOH), `Cc1cc(C)n2c1C=C1C(=O)N(C)C(c3ccc(I)cc3)=[N+]1[B-]2(F)F` [6c] came in with an Imax abs of 492 nm, an Imax emiss of 532 nm, an e of 57303 M⁻¹ cm⁻¹ and a fwhm of 54 nm. The F in data set [1] (solvent MeOH) was 0.86 ± 0.02.

In data set [1] (solvent MeOH), `Cc1cc(C)n2c1C=C1C(=O)NC(c3ccccc3)=[N+]1[B-]2(F)F` [6e] came in with an Imax abs of 495 nm, an Imax emiss of 531 nm, an e of 37867 M⁻¹ cm⁻¹ and a fwhm of 48 nm. For the same compound, the F in data set [1] (solvent MeOH) is given as 0.80 ± 0.01.

Consider `COC(=O)C1CCN(c2ccc3c(N4CCCCC4)c4ccc(=[N+]5CCC(C(=O)OC)CC5)cc-4oc3c2)CC1.O=S(=O)([O-])C(F)(F)F` (centres unmarked) [9f], for which, in data set [2], the If is given as 552 nm, the Imax stood at 482 nm, the emax amounted to 54908 and the “fwhm (full width at half-maximum height)” value came out at 47 nm. The compound also registered a Ff in data set [2] of 0.02 ± 0.001.

As to `CCC(C)Nc1c2ccc(=[N+]3CCCCC3)cc-2oc2cc(N3CCCCC3)ccc12.O=S(=O)([O-])C(F)(F)F` (racemic) [9c], in data set [2], the If is 537 nm, the Imax was determined as 456 nm, the emax was 52423 and the “fwhm (full width at half-maximum height)” value came out at 52 nm. For the same compound, the Ff in data set [2] is on record as 0.85 ± 0.01.

In data set [1] (solvent MeOH), `COc1ccc(C2=[N+]3C(=Cc4c(C)cc(C)n4[B-]3(F)F)C(=O)N2C)cc1` [6d] displayed an Imax abs of 493 nm, an Imax emiss of 521 nm, an e of 51269 M⁻¹ cm⁻¹ and a fwhm of 38 nm. Also, the F in data set [1] (solvent MeOH) came to 0.85 ± 0.03.

On to `O=S(=O)([O-])C(F)(F)F.c1cc2c(N3CCCCC3)c3ccc(=[N+]4CCCCC4)cc-3oc2cc1N1CCCCC1` [9a], for which, in data set [2], the If was found to be 562 nm, the Imax was 491 nm, the emax was determined as 60409 and the “fwhm (full width at half-maximum height)” value was determined as 55 nm. In data set [2], this compound registered a Ff of 0.14 ± 0.01.

Take `Cc1cc(C)n2c1C=C1C(=O)N(C)C(c3ccccc3)=[N+]1[B-]2(F)F` [6b]: in data set [1] (solvent MeOH), the Imax abs worked out at 490 nm, the Imax emiss is recorded as 521 nm, the e was found to be 58684 M⁻¹ cm⁻¹ and the fwhm is 46 nm. In data set [1] (solvent MeOH), this compound displayed an F of 0.87 ± 0.01.

In data set [1] (solvent MeOH), `CC1=[N+]2C(=Cc3c(C)cc(C)n3[B-]2(F)F)C(=O)N1C` [6a] had an Imax abs of 477 nm, an Imax emiss of 485 nm, an e of 57286 M⁻¹ cm⁻¹ and a fwhm of 19 nm. The same compound came in with a F in data set [1] (solvent MeOH) of 0.89 ± 0.01.

As for `CCN(CC)c1c2ccc(=[N+]3CCCCC3)cc-2oc2cc(N3CCCCC3)ccc12.O=S(=O)([O-])C(F)(F)F` [9b], in data set [2], the If turned out to be 558 nm, the Imax came to 499 nm, the emax was determined as 50978 and the “fwhm (full width at half-maximum height)” value came out at 41 nm. Moreover, the Ff in data set [2] is given as 0.11 ± 0.02.

On to `COc1ccccc1C1=[N+]2C(=C(c3ccc(-c4cn(-c5ccc(C6=C7C(C)=C(S(=O)(=O)[O-])C(C)=[N+]7[B-](F)(F)n7c(C)c(S(=O)(=O)[O-])c(C)c76)cc5)nn4)cc3OCC(=O)O)c3ccc(-c4ccccc4OC)n3[B-]2(F)F)C=C1.[Na+].[Na+]` [compound 22], for which, in data set [4], the water solubility result was “water soluble”.

The values are drawn from patent US20090192298A1, “Through-bond energy transfer cassettes, systems and methods” (priority 2007, published 2009).
